These are literature values, as cited in US10143669B2, “Use of short chain fatty acids in cancer prevention” (Temple University-Of The Commonwealth System of Higher …, priority 2015, dated 2018).

The test system of one series is HBx transgenic mice. The conditions noted are these: Arzumanyan A et al., Cancer Res, 2012.
In series [1] the test system is Hepatocellular carcinoma (HCC). The conditions noted are these: Peck-Radosavljevic M, Liver Cancer, 2014.
Another series concerns established tumor. The conditions noted are these: Bindels L B et al., Br J Cancer, 2012.

For the compound `CS(=O)(=O)c1ccc(C(=O)Nc2ccc(Cl)c(-c3ccccn3)c2)c(Cl)c1` [GDC-0449], the “number and size of tumors in HBx transgenic mice” value in the series with HBx transgenic mice was “decreased the number and size of tumors”.

For the compound `CNC(=O)c1cc(Oc2ccc(NC(=O)Nc3ccc(Cl)c(C(F)(F)F)c3)cc2)ccn1` [sorafenib], the “life expectancy extended, average” value in series [1] is listed as 3 months.

As for `CCC(=O)O` [proprionate], in the series on established tumor, the “growth of an established tumor” value is recorded as “reduce the growth”.
